Measurements as given in patent EP0418990A2, “13-Bromo and 13,14-dibromo ergoline, their preparation and their use” (SCHERING AKTIENGESELLSCHAFT, priority 1989, dated 1991).

Tested on: Ratten
Assay: Automatic recording of stereotypies in rats (Horowski method), dopamine-agonist effect
Type: in vivo, männliche Wistar-Ratten
Conditions: 60 min after treatment
Source text: Die dopaminagonistische Wirkung wurde mit Hilfe der von Horowski beschriebenen Methode der automatischen Registrierung von Stereotypien an Ratten bestimmt (Arzneim. Forsch. 12, 2281-2286, 1978): Unmittelbar nach intraperitonealer Prüfsubstanz- bzw. Vehikelverabreichung werden männliche Wistar-Ratten (90-120 g) einzeln in Zwangskäfige aus Acrylglas gesetzt. Über ein vor dem Kopf der Tiere angebrachtes elektrodynamisches Aufnahmesystem wird die Zahl der Kontakte an einem stählernen Becher mit einem zentralen Metallstab als Folge der stereotypen Kau-, Leck- und Nagebewegungen während 60 Minuten registriert. Die Mittelwerte ± S.E.M. der Anzahl der Kontakte während 60 Minuten für die verschiedenen Behandlungsgruppen, die mit jeweils 12 Tieren besetzt sind, werden berechnet und die Signifikanz der Unterschiede zwischen den Mittelwerten der verschiedenen Prüfsubstanzdosen im Vergleich zur Vehikel-behandelten Kontrollgruppe mit Hilfe der einfachen Varianzanalyse in Verbindung mit dem Dunnett-Test ermittelt.

## CCN(CC)C(=O)N[C@H]1C[C@@H]2c3cc(Br)cc4[nH]c(C)c(c34)C[C@H]2N(CC)C1 [CH2CH3, 3-(13-Brom-6-ethyl-2-methyl-8α-ergolinyl)-1,1-diethyl-harnstoff]
Dose 0.025 mg/kg intraperitoneal, n=12, vehicle control 2137 ± 849
  Stereotypien(counts pro 60 Minuten) (Mittelwert ± S.E.M.): 1943 ± 472 counts pro 60 Minuten
Dose 0.1 mg/kg intraperitoneal, n=12, vehicle control 2137 ± 849
  Stereotypien(counts pro 60 Minuten) (Mittelwert ± S.E.M.): 2470 ± 548 counts pro 60 Minuten
Dose 0.39 mg/kg intraperitoneal, n=12, xx: p<0.01 vs. control, vehicle control 2137 ± 849
  Stereotypien(counts pro 60 Minuten) (Mittelwert ± S.E.M.): 7499 ± 1342xx counts pro 60 Minuten
Dose 1.56 mg/kg intraperitoneal, n=12, xx: p<0.01 vs. control, vehicle control 2137 ± 849
  Stereotypien(counts pro 60 Minuten) (Mittelwert ± S.E.M.): 8066 ± 1248xx counts pro 60 Minuten
Dose 6.25 mg/kg intraperitoneal, n=12, xx: p<0.01 vs. control, vehicle control 2137 ± 849
  Stereotypien(counts pro 60 Minuten) (Mittelwert ± S.E.M.): 7381 ±1336xx counts pro 60 Minuten
